Test results from PubChem BioAssay AID1259407 (Chemical Carcinogenesis Research Information System (CCRIS), 2018).
Activity calls are given as the source filed them. How the calls were made is not given here.

Test system: CCRIS mutagenicity, Ames/micronucleus/aberration tests
Test: CCRIS mutagenicity studies
[1] = Test System: AMES SALMONELLA TYPHIMURIUM, Strain/Indicator: TA98, Metabolic Activation: NONE, Method: PREINCUBATION
[2] = Test System: AMES SALMONELLA TYPHIMURIUM, Strain/Indicator: TA100, Metabolic Activation: NONE, Method: PREINCUBATION
[3] = Test System: AMES SALMONELLA TYPHIMURIUM, Strain/Indicator: TA1535, Metabolic Activation: NONE, Method: PREINCUBATION
[4] = Test System: AMES SALMONELLA TYPHIMURIUM, Strain/Indicator: TA1537, Metabolic Activation: NONE, Method: PREINCUBATION

C[C@]12CCC(=O)C=C1[C@@H]1C[C@@H]1[C@H]1[C@@H]3[C@@H]4C[C@@H]4[C@@]4(CCC(=O)O4)[C@@]3(C)CC[C@@H]12
mutagenic call (End Point: IN VITRO CHROMOSOMAL ABERRATIONS, Test System: HUMAN PERIPHERAL LYMPHOCYTES, Metabolic Activation: NONE): inactive; negative | mutagenic call (End Point: IN VITRO CHROMOSOMAL ABERRATIONS, Test System: HUMAN PERIPHERAL LYMPHOCYTES, Metabolic Activation: RAT, LIVER, S-9, AROCLOR 1254): inactive; negative | mutagenic call (End Point: IN VIVO MICRONUCLEUS, Test System: BONE MARROW POLYCHROMATIC ERYTHROCYTES, Species: MOUSE, Strain/Sex: NMRI/MALE, FEMALE, Route: INTRAGASTRIC): inactive; negative | mutagenic call [1]: inactive; negative | mutagenic call (Test System: AMES SALMONELLA TYPHIMURIUM, Strain/Indicator: TA98, Metabolic Activation: NONE, Method: STANDARD PLATE): inactive; negative | mutagenic call (Test System: AMES SALMONELLA TYPHIMURIUM, Strain/Indicator: TA98, Metabolic Activation: RAT, LIVER, S-9, AROCLOR 1254, Method: PREINCUBATION): inactive; negative | mutagenic call (Test System: AMES SALMONELLA TYPHIMURIUM, Strain/Indicator: TA98, Metabolic Activation: RAT, LIVER, S-9, AROCLOR 1254, Method: STANDARD PLATE): inactive; negative | mutagenic call [2]: inactive; negative | mutagenic call (Test System: AMES SALMONELLA TYPHIMURIUM, Strain/Indicator: TA100, Metabolic Activation: NONE, Method: STANDARD PLATE): inactive; negative | mutagenic call (Test System: AMES SALMONELLA TYPHIMURIUM, Strain/Indicator: TA100, Metabolic Activation: RAT, LIVER, S-9, AROCLOR 1254, Method: PREINCUBATION): inactive; negative | mutagenic call (Test System: AMES SALMONELLA TYPHIMURIUM, Strain/Indicator: TA100, Metabolic Activation: RAT, LIVER, S-9, AROCLOR 1254, Method: STANDARD PLATE): inactive; negative | mutagenic call [3]: inactive; negative | mutagenic call (Test System: AMES SALMONELLA TYPHIMURIUM, Strain/Indicator: TA1535, Metabolic Activation: NONE, Method: STANDARD PLATE): inactive; negative | mutagenic call (Test System: AMES SALMONELLA TYPHIMURIUM, Strain/Indicator: TA1535, Metabolic Activation: RAT, LIVER, S-9, AROCLOR 1254, Method: PREINCUBATION): inactive; negative | mutagenic call (Test System: AMES SALMONELLA TYPHIMURIUM, Strain/Indicator: TA1535, Metabolic Activation: RAT, LIVER, S-9, AROCLOR 1254, Method: STANDARD PLATE): inactive; negative | mutagenic call [4]: inactive; negative | mutagenic call (Test System: AMES SALMONELLA TYPHIMURIUM, Strain/Indicator: TA1537, Metabolic Activation: NONE, Method: STANDARD PLATE): inactive; negative | mutagenic call (Test System: AMES SALMONELLA TYPHIMURIUM, Strain/Indicator: TA1537, Metabolic Activation: RAT, LIVER, S-9, AROCLOR 1254, Method: PREINCUBATION): inactive; negative | mutagenic call (Test System: AMES SALMONELLA TYPHIMURIUM, Strain/Indicator: TA1537, Metabolic Activation: RAT, LIVER, S-9, AROCLOR 1254, Method: STANDARD PLATE): inactive; negative | mutagenic call (Test System: AMES SALMONELLA TYPHIMURIUM, Strain/Indicator: TA1538, Metabolic Activation: NONE, Method: PREINCUBATION): inactive; negative | mutagenic call (Test System: AMES SALMONELLA TYPHIMURIUM, Strain/Indicator: TA1538, Metabolic Activation: NONE, Method: STANDARD PLATE): inactive; negative | mutagenic call (Test System: AMES SALMONELLA TYPHIMURIUM, Strain/Indicator: TA1538, Metabolic Activation: RAT, LIVER, S-9, AROCLOR 1254, Method: PREINCUBATION): inactive; negative | mutagenic call (Test System: AMES SALMONELLA TYPHIMURIUM, Strain/Indicator: TA1538, Metabolic Activation: RAT, LIVER, S-9, AROCLOR 1254, Method: STANDARD PLATE): inactive; negative | mutagenic call (Test System: CHINESE HAMSTER V-79, Strain/Indicator: V-79 (HGPRT)/6-THIOGUANINE, Metabolic Activation: NONE): inactive; negative | mutagenic call (Test System: CHINESE HAMSTER V-79, Strain/Indicator: V-79 (HGPRT)/6-THIOGUANINE, Metabolic Activation: RAT, LIVER, S-9, AROCLOR 1254): inactive; negative

COc1ccc2c(OC)c3ccoc3nc2c1OC
mutagenic call (Test System: AMES SALMONELLA TYPHIMURIUM, Strain/Indicator: TA98, Metabolic Activation: RAT, LIVER, MICROSOMES, PHENOBARBITAL, Method: STANDARD PLATE): active; positive | mutagenic call (Test System: AMES SALMONELLA TYPHIMURIUM, Strain/Indicator: TA98, Metabolic Activation: RAT, LIVER, S-9, PHENOBARBITAL, Method: STANDARD PLATE): active; positive | mutagenic call (Test System: AMES SALMONELLA TYPHIMURIUM, Strain/Indicator: TA100, Metabolic Activation: RAT, LIVER, MICROSOMES, PHENOBARBITAL, Method: STANDARD PLATE): active; positive | mutagenic call (Test System: AMES SALMONELLA TYPHIMURIUM, Strain/Indicator: TA100, Metabolic Activation: RAT, LIVER, S-9, PHENOBARBITAL, Method: STANDARD PLATE): active; positive | mutagenic call (Test System: AMES SALMONELLA TYPHIMURIUM, Strain/Indicator: TA1535, Metabolic Activation: RAT, LIVER, MICROSOMES, PHENOBARBITAL, Method: STANDARD PLATE): inactive; negative | mutagenic call (Test System: AMES SALMONELLA TYPHIMURIUM, Strain/Indicator: TA1538, Metabolic Activation: RAT, LIVER, MICROSOMES, PHENOBARBITAL, Method: STANDARD PLATE): inactive; negative

CC1CCC(C(C)C)C(O)C1 (stereo not given)
mutagenic call (End Point: IN VITRO CHROMOSOMAL ABERRATIONS, Test System: CHO CELLS, Metabolic Activation: NONE): active; positive | mutagenic call (End Point: IN VITRO CHROMOSOMAL ABERRATIONS, Test System: TK6 HUMAN LYMPHOBLASTS, Metabolic Activation: NONE): active; positive

CCCBr
mutagenic call (End Point: In vitro micronucleus, Test System: Chinese Hamster Ovary (CHO-WBL) cells, Metabolic Activation: None): inactive; negative | mutagenic call [1]: inactive; negative | mutagenic call (Test System: AMES SALMONELLA TYPHIMURIUM, Strain/Indicator: TA98, Metabolic Activation: RAT LIVER S-9, PHENOBARBITAL AND BETA-NAPHTHOFLAVONE, Method: PREINCUBATION): inactive; negative | mutagenic call [2]: inactive; negative | mutagenic call (Test System: AMES SALMONELLA TYPHIMURIUM, Strain/Indicator: TA100, Metabolic Activation: RAT LIVER S-9, PHENOBARBITAL AND BETA-NAPHTHOFLAVONE, Method: PREINCUBATION): inactive; negative | mutagenic call (Test System: AMES SALMONELLA TYPHIMURIUM, Strain/Indicator: TA102, Metabolic Activation: NONE, Method: PREINCUBATION): inactive; negative | mutagenic call (Test System: AMES SALMONELLA TYPHIMURIUM, Strain/Indicator: TA102, Metabolic Activation: RAT LIVER S-9, PHENOBARBITAL AND BETA-NAPHTHOFLAVONE, Method: PREINCUBATION): inactive; negative | mutagenic call (Test System: AMES SALMONELLA TYPHIMURIUM, Strain/Indicator: TA104, Metabolic Activation: NONE, Method: PREINCUBATION): inactive; negative | mutagenic call (Test System: AMES SALMONELLA TYPHIMURIUM, Strain/Indicator: TA104, Metabolic Activation: RAT LIVER S-9, PHENOBARBITAL AND BETA-NAPHTHOFLAVONE, Method: PREINCUBATION): inactive; negative | mutagenic call [3]: inactive; negative | mutagenic call (Test System: AMES SALMONELLA TYPHIMURIUM, Strain/Indicator: TA1535, Metabolic Activation: RAT LIVER S-9, PHENOBARBITAL AND BETA-NAPHTHOFLAVONE, Method: PREINCUBATION): inactive; negative | mutagenic call [4]: inactive; negative | mutagenic call (Test System: AMES SALMONELLA TYPHIMURIUM, Strain/Indicator: TA1537, Metabolic Activation: RAT LIVER S-9, PHENOBARBITAL AND BETA-NAPHTHOFLAVONE, Method: PREINCUBATION): inactive; negative | mutagenic call (Test System: E.COLI, Strain/Indicator: WP2UVRA/PKM101, Metabolic Activation: NONE, Method: PREINCUBATION): inactive; negative | mutagenic call (Test System: E.COLI, Strain/Indicator: WP2UVRA/PKM101, Metabolic Activation: RAT LIVER S-9, PHENOBARBITAL AND BETA-NAPHTHOFLAVONE, Method: PREINCUBATION): inactive; negative | mutagenic call (Test System: E.COLI, Strain/Indicator: WP2UVRA, Metabolic Activation: NONE, Method: PREINCUBATION): inactive; negative | mutagenic call (Test System: E.COLI, Strain/Indicator: WP2UVRA, Metabolic Activation: RAT LIVER S-9, PHENOBARBITAL AND BETA-NAPHTHOFLAVONE, Method: PREINCUBATION): inactive; negative

O=NN1CN(N=O)CN(N=O)C1
mutagenic call (Test System: Ames Salmonella typhimurium, Strain/Indicator: TA97a, Metabolic Activation: None, Method: Preincubation): inactive; negative | mutagenic call (Test System: Ames Salmonella typhimurium, Strain/Indicator: TA97a, Metabolic Activation: Rat, Liver, S-9, Aroclor 1254, Method: Preincubation): active; positive | mutagenic call (Test System: Ames Salmonella typhimurium, Strain/Indicator: TA98, Metabolic Activation: Rat, Liver, S-9, Aroclor 1254, Method: Preincubation): inactive; negative | mutagenic call (Test System: Ames Salmonella typhimurium, Strain/Indicator: TA100, Metabolic Activation: Rat, Liver, S-9, Aroclor 1254, Method: Preincubation): inactive; negative | mutagenic call (Test System: Ames Salmonella typhimurium, Strain/Indicator: TA102, Metabolic Activation: Rat, Liver, S-9, Aroclor 1254, Method: Preincubation): active; positive
